# Assay results from PubChem BioAssay AID492982 (Sanford-Burnham Center for Chemical Genomics, 2010).
# Active and inactive are the calls of the source.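 How the source made its calls: active means mean EC50 below 10 µM; inactive means the rest.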
# Biological target: Type-1 angiotensin II receptor (Homo sapiens) (UniProt P30556)
# Assay: AGTR1 activation selectivity check – cell-based, CHO-K1 PathHunter, luminescence, set 3, selectivity assay for APJ agonist project, SAR follow-up (AID 492982)
# Conditions: CHO-K1 AGTR1 PathHunter beta-arrestin, 90 min
# Type-1 angiotensin II receptor (Homo sapiens), sequence (P30556 whole entry, looked up): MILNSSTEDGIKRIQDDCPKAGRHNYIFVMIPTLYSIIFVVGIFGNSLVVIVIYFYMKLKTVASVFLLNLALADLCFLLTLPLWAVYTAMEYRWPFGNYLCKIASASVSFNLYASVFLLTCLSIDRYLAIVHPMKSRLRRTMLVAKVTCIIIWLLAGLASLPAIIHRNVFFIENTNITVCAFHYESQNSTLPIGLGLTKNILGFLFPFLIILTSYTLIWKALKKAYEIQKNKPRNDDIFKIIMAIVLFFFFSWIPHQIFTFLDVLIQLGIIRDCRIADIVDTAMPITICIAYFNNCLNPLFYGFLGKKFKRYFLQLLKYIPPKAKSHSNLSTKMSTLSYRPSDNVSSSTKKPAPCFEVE
row,EC50,SMILES
1,> 79 µM (inactive),CC1=CC(=O)C(C(C)C)=C/C1=N/OS(=O)(=O)c1ccc(C(C)C)cc1
2,> 79 µM (inactive),CC1=CC(=O)C(C(C)C)=C/C1=N/OS(=O)(=O)c1ccc(C#N)cc1
3,> 79 µM (inactive),CC1=CC(=O)C(C(C)C)=C/C1=N/OS(=O)(=O)c1ccc(F)cc1
